The record followed here is publication PMC9103758 (International Journal of Molecular Sciences, 2022).

One assay deals with T1, human ANO2 (Homo sapiens, UniProt Q9NQ90).
T1 construct: expressed in transfected cells; host or cells: Fisher rat thyroid (FRT) cells
T1 sequence (Q9NQ90 1-998): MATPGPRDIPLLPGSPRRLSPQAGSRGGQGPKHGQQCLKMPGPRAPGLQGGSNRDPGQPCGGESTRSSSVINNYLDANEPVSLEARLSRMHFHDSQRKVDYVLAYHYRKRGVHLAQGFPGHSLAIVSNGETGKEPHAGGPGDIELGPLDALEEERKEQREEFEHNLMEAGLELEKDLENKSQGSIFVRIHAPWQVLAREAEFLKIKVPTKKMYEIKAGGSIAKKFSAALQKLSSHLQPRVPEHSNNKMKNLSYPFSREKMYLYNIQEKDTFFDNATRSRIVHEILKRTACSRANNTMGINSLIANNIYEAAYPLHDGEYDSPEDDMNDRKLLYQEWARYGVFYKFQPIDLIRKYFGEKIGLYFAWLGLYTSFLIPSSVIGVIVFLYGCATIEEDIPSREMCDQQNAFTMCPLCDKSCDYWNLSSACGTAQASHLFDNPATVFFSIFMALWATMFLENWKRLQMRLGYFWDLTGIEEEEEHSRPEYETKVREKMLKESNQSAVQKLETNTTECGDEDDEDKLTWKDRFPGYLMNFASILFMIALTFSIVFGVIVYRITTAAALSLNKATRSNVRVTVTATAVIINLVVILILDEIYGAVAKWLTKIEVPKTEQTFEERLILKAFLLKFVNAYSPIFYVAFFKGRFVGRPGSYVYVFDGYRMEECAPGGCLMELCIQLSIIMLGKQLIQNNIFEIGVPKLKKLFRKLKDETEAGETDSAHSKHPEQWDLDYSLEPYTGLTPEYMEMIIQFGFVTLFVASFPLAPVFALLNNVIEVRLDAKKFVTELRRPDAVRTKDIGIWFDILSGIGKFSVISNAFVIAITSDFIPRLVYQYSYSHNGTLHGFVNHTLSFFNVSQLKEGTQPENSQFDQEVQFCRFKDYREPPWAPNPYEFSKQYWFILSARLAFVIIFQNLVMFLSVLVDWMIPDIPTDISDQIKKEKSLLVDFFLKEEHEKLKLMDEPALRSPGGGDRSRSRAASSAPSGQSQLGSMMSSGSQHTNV
The assay can be described thus: YFP fluorescence quenching assay in FRT cells expressing human ANO2. The note with it: FRT cells expressing human ANO2, up to 10 μM. The assay is classed as cell-based.

The next assay deals with T2, VRAC in HeLa cells (Homo sapiens, UniProt Q8IWT6).
T2 construct: endogenous in cells; host or cells: HeLa cervical cancer cells stably expressing the YFP halide sensor
T2 sequence (Q8IWT6 1-810): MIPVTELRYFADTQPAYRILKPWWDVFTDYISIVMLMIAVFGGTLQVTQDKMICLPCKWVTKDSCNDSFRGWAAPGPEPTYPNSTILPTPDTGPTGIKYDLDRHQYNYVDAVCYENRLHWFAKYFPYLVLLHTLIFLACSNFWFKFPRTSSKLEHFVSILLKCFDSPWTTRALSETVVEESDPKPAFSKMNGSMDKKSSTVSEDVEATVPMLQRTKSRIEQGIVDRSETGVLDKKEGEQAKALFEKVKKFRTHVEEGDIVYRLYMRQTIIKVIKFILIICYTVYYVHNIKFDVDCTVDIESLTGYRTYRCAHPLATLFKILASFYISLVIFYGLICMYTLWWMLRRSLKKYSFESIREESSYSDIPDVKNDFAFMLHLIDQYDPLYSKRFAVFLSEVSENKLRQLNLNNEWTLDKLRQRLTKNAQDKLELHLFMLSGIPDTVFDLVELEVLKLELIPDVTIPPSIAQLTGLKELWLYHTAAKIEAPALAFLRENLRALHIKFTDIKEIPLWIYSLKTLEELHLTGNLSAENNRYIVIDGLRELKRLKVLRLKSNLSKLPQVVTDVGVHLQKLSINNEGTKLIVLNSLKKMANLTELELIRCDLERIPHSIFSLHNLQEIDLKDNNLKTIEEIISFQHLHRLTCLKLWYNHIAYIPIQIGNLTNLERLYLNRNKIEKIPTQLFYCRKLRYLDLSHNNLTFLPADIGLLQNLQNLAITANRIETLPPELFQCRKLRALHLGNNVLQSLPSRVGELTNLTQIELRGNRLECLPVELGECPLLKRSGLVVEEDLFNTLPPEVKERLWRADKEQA
The assay is classed as cell-based.

Experimental for human ANO2: ANO2 activity was measured using YFP fluorescence quenching assay in FRT cells expressing human ANO2.
(D) Representative YFP fluorescence traces in FRT cells expressing human ANO2.

Usually IC50 stands for the concentration that gives 50% inhibition. For the compound `COc1cccc(C(c2c(O)c3ccccc3oc2=O)c2c(O)c3ccccc3oc2=O)c1O` [VI-116, 3,3′-((2-hydroxy-3-methoxyphenyl)methylene)bis(4-hydroxy-2H-chromen-2-one)], at human ANO2, the “effect on ANO2 activity” value is given as “minimal effect”. Moreover, 1200 ± 80 nM corresponded to half-maximal inhibition against VRAC in HeLa cells (IC50).
